Measurements taken from the supplement of paper PMC10307832.

Columns and labels:
Assay in all cases: relative viability (nuclei count vs DMSO), 5 days (fraction); higher = more cells survive
Bosutinib + Tozasertib = compound: COc1cc(Nc2c(C#N)cnc3cc(OCCCN4CCN(C)CC4)c(OC)cc23)c(Cl)cc1Cl [Bosutinib] + Cc1cc(Nc2cc(N3CCN(C)CC3)nc(Sc3ccc(NC(=O)C4CC4)cc3)n2)n[nH]1 [Tozasertib] (partner 0.1 µM)
How it was run: (§1)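 Lung cancer cell lines were pin-tool dosed in 1536-well plates on the day after seeding, with either a lone drug or a fixed anchor-drug dose plus five library-drug doses (not always all listed) in √10 steps. Nuclei were counted on 4× images after 5 days. Relative viability is the ratio of treated-well to vehicle-well nuclei counts, with each value a median of duplicate plates.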

Bosutinib + Dasatinib = compound: COc1cc(Nc2c(C#N)cnc3cc(OCCCN4CCN(C)CC4)c(OC)cc23)c(Cl)cc1Cl [Bosutinib] + Cc1nc(Nc2ncc(C(=O)Nc3c(C)cccc3Cl)s2)cc(N2CCN(CCO)CC2)n1 [Dasatinib] (partner 0.075 µM)
How it was run: as §1

Bosutinib + Foretinib = compound: COc1cc(Nc2c(C#N)cnc3cc(OCCCN4CCN(C)CC4)c(OC)cc23)c(Cl)cc1Cl [Bosutinib] + COc1cc2c(Oc3ccc(NC(=O)C4(C(=O)Nc5ccc(F)cc5)CC4)cc3F)ccnc2cc1OCCCN1CCOCC1 [Foretinib] (partner 0.25 µM)
How it was run: as §1

Bosutinib + Decitabine = compound: COc1cc(Nc2c(C#N)cnc3cc(OCCCN4CCN(C)CC4)c(OC)cc23)c(Cl)cc1Cl [Bosutinib] + Nc1ncn([C@H]2C[C@H](O)[C@@H](CO)O2)c(=O)n1 [Decitabine] (partner 2 µM)
How it was run: as §1

Bosutinib + Navitoclax = compound: COc1cc(Nc2c(C#N)cnc3cc(OCCCN4CCN(C)CC4)c(OC)cc23)c(Cl)cc1Cl [Bosutinib] + CC1(C)CCC(c2ccc(Cl)cc2)=C(CN2CCN(c3ccc(C(=O)NS(=O)(=O)c4ccc(N[C@H](CCN5CCOCC5)CSc5ccccc5)c(S(=O)(=O)C(F)(F)F)c4)cc3)CC2)C1 [Navitoclax] (partner 0.5 µM)
How it was run: as §1

Cell Line	relative viability (Bosutinib + Tozasertib; first compound 0.01 µM)	relative viability (Bosutinib + Tozasertib; first compound 0.03162 µM)	relative viability (Bosutinib + Tozasertib; first compound 0.1 µM)	relative viability (Bosutinib + Tozasertib; first compound 1 µM)	relative viability (Bosutinib + Dasatinib; first compound 0.01 µM)	relative viability (Bosutinib + Dasatinib; first compound 0.03162 µM)	relative viability (Bosutinib + Dasatinib; first compound 0.1 µM)	relative viability (Bosutinib + Dasatinib; first compound 1 µM)	relative viability (Bosutinib + Foretinib; first compound 0.01 µM)	relative viability (Bosutinib + Foretinib; first compound 0.03162 µM)	relative viability (Bosutinib + Foretinib; first compound 0.1 µM)	relative viability (Bosutinib + Foretinib; first compound 1 µM)	relative viability (Bosutinib + Decitabine; first compound 0.01 µM)	relative viability (Bosutinib + Decitabine; first compound 0.03162 µM)	relative viability (Bosutinib + Decitabine; first compound 0.1 µM)	relative viability (Bosutinib + Decitabine; first compound 1 µM)	relative viability (Bosutinib + Navitoclax; first compound 0.01 µM)	relative viability (Bosutinib + Navitoclax; first compound 0.03162 µM)	relative viability (Bosutinib + Navitoclax; first compound 0.1 µM)	relative viability (Bosutinib + Navitoclax; first compound 1 µM)
NCI-H1355	0.549	0.603	0.524	0.475	0.746	0.673	0.731	0.709	0.956	0.973	1.01	0.917	0.304	0.366	0.352	0.368	0.996	0.925	0.96	0.814
NCI-H1395	0.758	0.727	0.718	0.66	0.414	0.429	0.405	0.436	0.947	0.921	0.996	0.947	0.687	0.756	0.688	0.735	1.45	1.01	1.34	1.12
NCI-H1437	0.401	0.426	0.407	0.344	0.392	0.384	0.4	0.338	1.23	1.2	1.14	1.1	0.536	0.567	0.572	0.482	1.13	1.11	1.01	0.918
NCI-H1650	0.344	0.407	0.36	0.295	0.357	0.317	0.375	0.457	0.917	1.09	0.862	0.599	0.457	0.378	0.378	0.511	1.46	1.06	1.18	0.754
NCI-H1651	0.586	0.742	0.612	0.624	0.488	0.452	0.433	0.482	0.75	0.737	0.909	0.8	0.511	0.711	0.688	0.625	1	1.17	0.88	0.961
NCI-H1666	0.57	0.626	0.629	0.662	0.75	0.834	0.814	0.808	1.04	0.936	0.976	0.921	0.63	0.868	0.72	0.802	1	1.01	0.889	0.892
NCI-H1734	0.245	0.242	0.245	0.248	0.523	0.508	0.512	0.46	0.888	0.837	0.849	0.719	0.511	0.55	0.483	0.458	0.808	0.827	0.853	0.737
NCI-H1755	0.585	0.736	0.605	0.5	0.427	0.476	0.438	0.433	0.974	0.988	0.983	0.801	0.639	0.678	0.713	0.804	0.971	1.02	1.04	0.925
NCI-H1793	0.363	0.404	0.373	0.23	0.465	0.392	0.391	0.347	0.61	0.664	0.58	0.473	0.505	0.505	0.436	0.436	0.466	0.479	0.456	0.263
NCI-H1915	0.438	0.449	0.429	0.419	0.323	0.323	0.33	0.297	1.07	1.1	1.11	1.11	0.265	0.261	0.242	0.267	0.802	0.824	0.823	0.81
NCI-H1944	0.275	0.262	0.258	0.19	0.216	0.2	0.209	0.208	0.997	0.814	0.889	0.574	0.477	0.49	0.472	0.393	1.06	1.08	1.04	0.956
NCI-H1975	0.739	0.871	0.687	0.583	0.343	0.395	0.364	0.374	0.981	0.975	0.977	0.841	0.45	0.369	0.398	0.371	1	1.06	1.1	0.991
NCI-H1993	0.549	0.538	0.564	0.496	0.492	0.63	0.589	0.622	0.819	0.672	0.778	0.564	0.599	0.655	0.655	0.568	0.871	0.968	0.957	0.742
NCI-H2009	0.732	0.82	0.73	0.572	0.41	0.362	0.416	0.344	1.22	1.24	1.2	0.857	0.365	0.468	0.345	0.36	1.22	1.2	1.21	1.08
NCI-H2023	0.295	0.462	0.399	0.233	0.683	0.599	0.65	0.583	0.874	0.921	0.81	0.498	0.233	0.248	0.216	0.25	1	1.01	1.03	0.92
NCI-H2085	0.782	0.692	0.765	0.738	0.264	0.219	0.329	0.398	0.949	0.983	0.806	0.935	0.553	0.564	0.543	0.606	1.14	1.13	1.11	1.2
